Laboratory results taken from US10308916B2, “Omega-transaminase mutants with activity improvements toward ketones and methods for producing optically pure amines” (Industry-Academic Cooperation Foundation, Yonsei University, priority 2015, dated 2019).
Where two headings read alike, the source gives them in different places.

Key:
Type in all cases: biochemical
OATA W58L [1] = tested on: OATA W58L
OATA W58L [2] = details: pH 7
OATA W58L [3] = tested on: OATA W58L; remark: listed apart in the source
OATA W58A [4] = tested on: OATA W58A
OATA W58V = details: pH 7
OATA W58M = details: pH 7
OATA W58I = details: pH 7
OATA W58A [5] = details: pH 7
OATA L57A/W58A/V154A [6] = tested on: OATA L57A/W58A/V154A
OATA L57A/W58A = tested on: OATA L57A/W58A
OATA L57A/W58A/V154A [7] = tested on: OATA L57A/W58A/V154A; remark: listed apart in the source
OATA L57C/W58L/I261A = tested on: OATA L57C/W58L/I261A

Compound	Relative activity to acetophenone, OATA W58L (OATA W58L [2])	Relative reactivity, OATA W58L (OATA W58L [3])	Relative reactivity, OATA W58A (OATA W58A [4])	Relative activity to acetophenone, OATA W58V (OATA W58V)	Relative activity to acetophenone, OATA W58M (OATA W58M)	Relative activity to acetophenone, OATA W58I (OATA W58I)	Relative activity to acetophenone, OATA W58A (OATA W58A [5])	also measured
1-acetonaphthone [Ketone 1i]	47%	–	–	–	–	–	–	Conversion (%) OATAW58L (OATA W58L [1]): 75%
CC(N)CO (racemic) [DL-Alaninol]	–	39%	13%	–	–	–	–	–
CC(C)C(C)N (stereo not shown) [1,2-Dimethylpropylamine]	–	305%	101%	–	–	–	–	–
CC(C)CC(C)N (stereo not shown) [1,3-Dimethylbutylamine]	–	283%	173%	–	–	–	–	–
COCC(C)N (stereo not shown) [1-Methoxy-2-propylamine]	–	119%	126%	–	–	–	–	–
CC(N)CCc1ccccc1 (stereo not shown) [1-Methyl-3-phenylpropylamine]	–	202%	151%	–	–	–	–	–
CCC(=O)CO [1-hydroxy-2-butanone]	–	–	–	8%	21%	16%	9%	–
CC(C)(C)C(N)c1ccccc1 (stereo not shown) [2,2-Dimethyl-1-phenylpropan-1-amine]	–	2%	3%	–	–	–	–	–
CCCC(C)N (stereo not shown) [2-Aminopentane]	–	272%	194%	–	–	–	–	–
O=C(CO)c1ccccc1 [2-hydroxyacetophenone]	–	–	–	70%	65%	73%	61%	–
CC(=O)C(C)O (stereo not shown) [3-hydroxy-2-butanone]	–	–	–	29%	32%	23%	20%	–
CC(C)C(=O)C(=O)O [3-methyl-2-oxobutyric acid]	–	–	–	–	–	–	–	Relative activity, OATA L57A/W58A/V154A (OATA L57A/W58A/V154A [6]): 11%
CC(N)c1ccc(F)cc1 (stereo not drawn) [4-Fluoro-α-methylbenzylamine]	–	283%	117%	–	–	–	–	–
CC(=O)CCO [4-hydroxy-2-butanone]	–	–	–	20%	29%	20%	17%	–
C[C@H](N)c1cccc2ccccc12 [(S)-1-(1-naphthyl)ethylamine]	–	2%	0.7%	–	–	–	–	Relative activity, OATA L57A/W58A (OATA L57A/W58A): 18%; Relative activity, OATA L57A/W58A/V154A (OATA L57A/W58A/V154A [7]): 60%
C[C@H](N)C1CC1 [(S)-1-Cyclopropylethylamine]	–	233%	79%	–	–	–	–	–
N[C@H]1CCc2ccccc21 [(S)-1-aminoindan]	–	54%	100%	–	–	–	–	–
CCCC[C@H](C)N [(S)-2-aminohexane]	–	306%	116%	–	–	–	–	–
CCCCCC[C@H](C)N [(S)-2-aminooctane]	–	255%	99%	–	–	–	–	–

Compound	Relative activity to acetophenone, OATA W58L (OATA W58L [2])	Relative reactivity, OATA W58L (OATA W58L [3])	Relative reactivity, OATA W58A (OATA W58A [4])	Relative activity to acetophenone, OATA W58V (OATA W58V)	Relative activity to acetophenone, OATA W58M (OATA W58M)	Relative activity to acetophenone, OATA W58I (OATA W58I)	Relative activity to acetophenone, OATA W58A (OATA W58A [5])	also measured
COc1ccc([C@H](C)N)cc1 [(S)-4-methoxy-α-methylbenzylamine]	–	98%	44%	–	–	–	–	–
Cc1ccc([C@H](C)N)cc1 [(S)-α,4-dimethylbenzylamine]	–	78%	45%	–	–	–	–	–
CC[C@H](N)c1ccccc1 [(S)-α-ethylbenzylamine]	–	20%	44%	–	–	–	–	Relative activity, OATA L57A/W58A (OATA L57A/W58A): 202%; Relative activity, OATA L57A/W58A/V154A (OATA L57A/W58A/V154A [7]): 707%
CC(=O)c1ccc(C)cc1 [Ketone 1d, 4-methylacetophenone]	51%	–	–	52%	68%	74%	56%	Conversion (%) OATAW58L (OATA W58L [1]): 91%; Relative activity, OATA L57C/W58L/I261A (OATA L57C/W58L/I261A): 1,096%
COc1ccc(C(C)=O)cc1 [Ketone 1e, 4-methoxyacetophenone]	34%	–	–	30%	42%	38%	30%	Relative activity, OATA L57C/W58L/I261A (OATA L57C/W58L/I261A): 4,017%
O=C1CCCc2ccccc21 [Ketone 1h, α-tetralone]	0.7%	–	–	12%	17%	16%	19%	Relative activity, OATA L57C/W58L/I261A (OATA L57C/W58L/I261A): 243%
CCCC(C)=O [Ketone 1j, 2-pentanone]	141%	–	–	28%	25%	21%	15%	–
CCCCC(C)=O [Ketone 1k, 2-hexanone]	281%	–	–	62%	57%	54%	52%	Conversion (%) OATAW58L (OATA W58L [1]): 93%
CCCCCCC(C)=O [Ketone 1l, 2-octanone]	209%	–	–	140%	81%	73%	122%	Conversion (%) OATAW58L (OATA W58L [1]): 91%; Relative activity, OATA L57C/W58L/I261A (OATA L57C/W58L/I261A): 13,757%
CC(=O)C(C)C [Ketone 1m, 3-methyl 2-butanone]	78%	–	–	29%	29%	26%	21%	–
CC(=O)CC(C)C [Ketone 1n, 4-methyl-2-pentanone]	61%	–	–	35%	38%	41%	46%	–
CCC(C)=O [Ketone 2-butanone, 2-butanone]	78%	–	–	17%	25%	20%	16%	–
Cc1cccc(C)c1OCC(C)N (stereo not shown) [Mexiletine, reference compound]	–	284%	197%	–	–	–	–	–
CC(C)=O [acetone]	–	–	–	18%	19%	18%	19%	–
CC(=O)CO [hydroxyacetone]	23%	–	–	32%	44%	42%	31%	–
COCC(C)=O [methoxyacetone]	424%	–	–	152%	159%	166%	135%	–
(S)-sec-butylamine	–	266%	66%	–	–	–	–	–
cyclpropyl methyl ketone [Ketone 1o]	4%	–	–	14%	19%	17%	14%	–
